Measurements from patent US20160159814A1, “GLYCINE TRANSPORTER INHIBITOR” (TAISHO PHARMACEUTICAL CO., LTD., priority 2013, published 2016).

Target: T1, human type 1 glycine transporter (GlyT1) (Homo sapiens, UniProt P48067)
T1 construct: T98G cells (glioma cells) expressing human type 1 glycine transporter (GlyT1) were used; endogenous in cells; host or cells: T98G cells (human glioma cells)
T1 sequence (P48067 1-706): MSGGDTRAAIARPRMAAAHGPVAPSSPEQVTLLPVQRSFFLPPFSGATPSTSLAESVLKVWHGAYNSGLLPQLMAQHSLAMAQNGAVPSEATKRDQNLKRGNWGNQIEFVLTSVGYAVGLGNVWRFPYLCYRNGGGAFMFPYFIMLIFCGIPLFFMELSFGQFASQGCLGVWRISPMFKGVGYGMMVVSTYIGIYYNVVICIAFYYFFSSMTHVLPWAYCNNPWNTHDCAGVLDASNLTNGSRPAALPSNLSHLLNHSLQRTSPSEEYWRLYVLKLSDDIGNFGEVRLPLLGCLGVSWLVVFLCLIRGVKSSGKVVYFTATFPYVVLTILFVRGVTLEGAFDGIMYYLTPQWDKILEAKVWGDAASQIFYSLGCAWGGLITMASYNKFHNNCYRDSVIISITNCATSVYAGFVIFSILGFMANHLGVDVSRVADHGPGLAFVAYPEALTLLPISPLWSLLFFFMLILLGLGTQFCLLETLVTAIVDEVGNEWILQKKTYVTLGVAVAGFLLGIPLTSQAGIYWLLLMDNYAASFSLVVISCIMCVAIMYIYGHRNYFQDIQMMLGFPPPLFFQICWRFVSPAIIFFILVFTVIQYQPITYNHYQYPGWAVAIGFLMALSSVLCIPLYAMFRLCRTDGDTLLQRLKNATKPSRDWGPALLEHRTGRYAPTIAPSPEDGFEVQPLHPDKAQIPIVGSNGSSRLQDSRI
Test: Glycine uptake inhibition experiment ([3H] glycine uptake in T98G cells expressing GlyT1)
Assay type: cell-based
Settings: glycine uptake inhibition
How it was run: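 T98G glioma cells expressing human GlyT1 were pretreated 10 min with compound in HEPES buffer pH 7.4 (0.2% BSA), then incubated with compound plus 250 nM final [3H]glycine for 15 min at room temperature. Intracellular radioactivity was counted after NaOH lysis; 10 μM ALX5407 defined non-specific uptake. IC50 came from 10^−9–10^−5 M curves.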

Row | SMILES | IC50 [nM]
1 | C[C@H](O)c1cccc2c1C(F)(F)C(=O)N2Cc1cccc(Cl)c1 [Compound 55, 1-(3-chlorobenzyl)-3,3-difluoro-4-[(1S)-1-hydroxyethyl]-1,3-dihydro-2H-indol-2-one] | 2.2
2 | C[C@H](O)c1cccc2c1C(F)(F)C(=O)N2Cc1cccc(F)c1 [Compound 56, 3,3-difluoro-1-(3-fluorobenzyl)-4-[(1S)-1-hydroxyethyl)-1,3-dihydro-2H-indol-2-one] | 9.1
3 | C[C@H](O)c1cccc2c1C(F)(F)C(=O)N2Cc1cccc(C#N)c1 [Compound 57, 3-({3,3-difluoro-4-[(1S)-1-hydroxyethyl]-2-oxo-2,3-dihydro-1H-indol-1-yl}methyl) benzonitrile] | 15
4 | C[C@H](O)c1cccc2c1C(F)(F)C(=O)N2Cc1cccc(C(F)(F)F)c1 [Compound 58, 3,3-difluoro-4-[(1S)-1-hydroxyethyl]-1-[3-(trifluoromethyl)benzyl]-1,3-dihydro-2H-indol-2-one] | 6.6
5 | C[C@H](O)c1cccc2c1C(F)(F)C(=O)N2Cc1ccccn1 [Compound 60, 3,3-difluoro-4-[(1S)-1-hydroxyethyl]-1-(pyridin-2-ylmethyl)-1,3-dihydro-2H-indol-2-one] | 230
6 | C[C@H](O)c1cccc2c1C(F)(F)C(=O)N2Cc1cccnc1 [Compound 61, 3,3-difluoro-4-[(1S)-1-hydroxyethyl]-1-(pyridin-3-ylmethyl)-1,3-dihydro-2H-indol-2-one] | 420
7 | C[C@H](O)c1cccc2c1C(F)(F)C(=O)N2Cc1ccncc1 [Compound 64, 3,3-difluoro-4-[(1S)-1-hydroxyethyl]-1-(pyridin-4-ylmethyl)-1,3-dihydro-2H-indol-2-one] | 390
8 | COc1ccnc(CN2C(=O)C(F)(F)c3c([C@H](C)O)cccc32)c1 [Compound 66, 3,3-difluoro-4-[(1S)-1-hydroxyethyl]-1-[(4-methoxypyridin-2-yl)methyl]-1,3-dihydro-2H-indol-2-one] | 130
9 | C[C@H](O)c1cccc2c1C(F)(F)C(=O)N2Cc1cccc(C(F)(F)F)n1 [Compound 67, 3,3-difluoro-4-[(1S)-1-hydroxyethyl]-1-{[6-(trifluoromethyl)pyridin-2-yl]methyl}-1,3-dihydro-2H-indol-2-one] | 17
10 | COc1cncc(CN2C(=O)C(F)(F)c3c([C@H](C)O)cccc32)c1 [Compound 71, 3,3-difluoro-4-[(1S)-1-hydroxyethyl]-1-[(5-methoxypyridin-3-yl)methyl]-1,3-dihydro-2H-indol-2-one] | 160
11 | C[C@H](O)c1cccc2c1C(F)(F)C(=O)N2Cc1cnc2ccccc2c1 [Compound 74, 3,3-difluoro-4-[(1S)-1-hydroxyethyl)-1-(quinolin-3-ylmethyl)-1,3-dihydro-2H-indol-2-one] | 39
12 | C[C@H](O)c1cccc2c1C(F)(F)C(=O)N2Cc1ccc2nonc2c1 [Compound 76, 1-(2,1,3-benzoxadiazol-5-ylmethyl)-3,3-difluoro-4-[(1S)-1-hydroxyethyl]-1,3-dihydro-2H-indol-2-one] | 8.7
13 | C[C@H](O)c1cccc2c1C(F)(F)C(=O)N2Cc1ccc2ccccc2n1 [Compound 77, 3,3-difluoro-4-[(1S)-1-hydroxyethyl]-1-(quinolin-2-ylmethyl)-1,3-dihydro-2H-indol-2-one] | 37
14 | C[C@H](O)c1cccc2c1C(F)(F)C(=O)N2Cc1ccc2ncccc2n1 [Compound 78, 3,3-difluoro-4-[(1S)-1-hydroxyethyl]-1-(1,5-naphthyridin-2-ylmethyl)-1,3-dihydro-2H-indol-2-one] | 320
15 | C[C@H](O)c1cccc2c1C(F)(F)C(=O)N2Cc1ccsc1 [Compound 80, 3,3-difluoro-4-[(1S)-1-hydroxyethyl]-1-(thiophen-3-ylmethyl)-1,3-dihydro-2H-indol-2-one] | 28
16 | C[C@H](O)c1cccc2c1C(F)(F)C(=O)N2Cc1cccc(C(F)F)n1 [Compound 82, 1-{[6-(difluoromethyl)pyridin-2-yl]methyl}-3,3-difluoro-4-[(1S)-1-hydroxyethyl]-1,3-dihydro-2H-indol-2-one] | 44
17 | C[C@H](O)c1cccc2c1C(F)(F)C(=O)N2Cc1cncc(-n2nccn2)c1 [Compound 84, 3,3-difluoro-4-[(1S)-1-hydroxyethyl]-1-{[5-(2H-1,2,3-triazol-2-yl)pyridin-3-yl]methyl}-1,3-dihydro-2H-indol-2-one] | 35
18 | C[C@H](O)c1cccc2c1C(F)(F)C(=O)N2Cc1ccnc(C(F)(F)F)c1 [Compound 86, 3,3-difluoro-4-[(1S)-1-hydroxyethyl]-1-{[2-(trifluoromethyl)pyridin-4-yl]methyl}-1,3-dihydro-2H-indol-2-one] | 24

Other lines, results leading:

Row | IC50 [nM] | SMILES
19 | 20 | C[C@H](O)c1cccc2c1C(F)(F)C(=O)N2Cc1ccccc1 [Compound 54, 1-benzyl-3,3-difluoro-4-[(1S)-1-hydroxyethyl]-1,3-dihydro-2H-indol-2-one]
20 | 18 | COc1cccc(CN2C(=O)C(F)(F)c3c([C@H](C)O)cccc32)c1 [Compound 59, 3,3-difluoro-4-[(1S)-1-hydroxyethyl]-1-(3-methoxybenzyl)-1,3-dihydro-2H-indol-2-one]
21 | 230 | C[C@H](O)c1cccc2c1C(F)(F)C(=O)N2Cc1cccc(-n2cncn2)n1 [Compound 62, 3,3-difluoro-4-[(1S)-1-hydroxyethyl]-1-{[6-(1H-1,2,4-triazol-1-yl)pyridin-2-yl]methyl}-1,3-dihydro-2H-indol-2-one]
22 | 76 | C[C@H](O)c1cccc2c1C(F)(F)C(=O)N2Cc1cncc(F)c1 [Compound 63, 3,3-difluoro-1-[(5-fluoropyridin-3-yl)methyl]-4-[(1S)-1-hydroxyethyl]-1,3-dihydro-2H-indol-2-one]
23 | 18 | C[C@H](O)c1cccc2c1C(F)(F)C(=O)N2Cc1cc(Cl)ccn1 [Compound 65, 1-[(4-chloropyridin-2-yl)methyl]-3,3-difluoro-4-[(1S)-1-hydroxyethyl]-1,3-dihydro-2H-indol-2-one]
24 | 76 | COc1cccc(CN2C(=O)C(F)(F)c3c([C@H](C)O)cccc32)n1 [Compound 68, 3,3-difluoro-4-[(1S)-1-hydroxyethyl]-1-[(6-methoxypyridin-2-yl)methyl]-1,3-dihydro-2H-indol-2-one]
25 | 45 | C[C@H](O)c1cccc2c1C(F)(F)C(=O)N2Cc1ccnc(-n2cncn2)c1 [Compound 69, 3,3-difluoro-4-[(1S)-1-hydroxyethyl]-1-{[2-(1H-1,2,4-triazol-1-yl)pyridin-4-yl]methyl}-1,3-dihydro-2H-indol-2-one]
26 | 91 | C[C@H](O)c1cccc2c1C(F)(F)C(=O)N2Cc1cncc(C#N)c1 [Compound 70, 5-({3,3-difluoro-4-[(1S)-1-hydroxyethyl]-2-oxo-2,3-dihydro-1H-indol-1-yl}methyl)pyridine-3-carbonitile]
27 | 12 | C[C@H](O)c1cccc2c1C(F)(F)C(=O)N2Cc1cncc(Cl)n1 [Compound 72, 1-[(6-chloropyrazin-2-yl)methyl]-3,3-difluoro-4-[(1S)-1-hydroxyethyl]-1,3-dihydro-2H-indol-2-one]
28 | 37 | C[C@H](O)c1cccc2c1C(F)(F)C(=O)N2Cc1nc2ccccc2s1 [Compound 73, 1-(1,3-benzothiazol-2-ylmethyl)-3,3-difluoro-4-[(1S)-1-hydroxyethyl]-1,3-dihydro-2H-indol-2-one]
29 | 34 | C[C@H](O)c1cccc2c1C(F)(F)C(=O)N2Cc1nc2ccccc2n1C [Compound 75, 3,3-difluoro-4-[(1S)-1-hydroxyethyl]-1-[(1-methyl-1H-benzimidazol-2-yl)methyl]-1,3-dihydro-2H-indol-2-one]
30 | 31 | Cc1nc2ccccc2nc1CN1C(=O)C(F)(F)c2c([C@H](C)O)cccc21 [Compound 79, 3,3-difluoro-4-[(1S)-1-hydroxyethyl]-1-[(3-methylquinoxalin-2-yl)methyl]-1,3-dihydro-2H-indol-2-one]
31 | 30 | C[C@H](O)c1cccc2c1C(F)(F)C(=O)N2Cc1nc2ccccc2o1 [Compound 81, 1-(1,3-benzoxazol-2-ylmethyl)-3,3-difluoro-4-[(1S)-1-hydroxyethyl]-1,3-dihydro-2H-indol-2-one]
32 | 30 | C[C@H](O)c1cccc2c1C(F)(F)C(=O)N2Cc1cnc2ccccc2n1 [Compound 83, 3,3-difluoro-4-[(1S)-1-hydroxyethyl]-1-(quinoxalin-2-ylmethyl)1,3-dihydro-2H-indol-2-one]
33 | 420 | C[C@H](O)c1cccc2c1C(F)(F)C(=O)N2Cc1cc(C#N)ccn1 [Compound 85, 2-({3,3-difluoro-4-[(1S)-1-hydroxyethyl]-2-oxo-2,3-dihydro-1H-indol-1-yl}methyl)pyridine-4-carbonitrile]
